Reference: EP0937727A1, “Soluble crystalline cefuroxime axetil” (priority 1998, dated 1999)
Where “and” joins values, the source holds several entries; their conditions need not be identical. Identical values can stand only once.

Experiments:
[1] = Dissolution (solubility) test of the active ingredient from standardised tablets according to USP 23, p. 316; type: physicochemical; settings: test gemäß USP 23, nach 45 Minuten
Text: Im Anschluß beschreibt USP 23, Seite 316 einen Test für die Bestimmung der Bioverfügbarkeit dieses, aus beiden Diastereomeren etwa im Verhältnis von 1:1 bestehenden amorphen Produktes. Hierzu wird die Löslichkeit des Wirkstoffes aus einer standardisierten Tablettenformulierung in […] bestimmt. Zuläßlich sind solche Produkte, bei denen in 15 Minuten mindestens 60% des angegebenen Gehaltes an Wirkstoff und innerhalb von 45 Minuten mindestens 75% des angegebenen Wirkstoffes aufgelöst sind.
Das Produkt gemäß EP-A1 0 757 991 läßt sich nach der dortigen Vorschrift erzeugen. Die Löslichkeit des Wirkstoffes (aus der tablettierten Form) wie im folgenden beschrieben und bestimmt nach dem Standardverfahren gem. USP 23, S. 316, erreicht jedoch nach 45 Minuten nur etwas mehr als 40 %.
Dann wurden mit dem so gewonnenen Wirkstoff einerseits, dem erfindungsgemäßen Wirkstoff andererseits Tabletten hergestellt, und zwar nach folgendem Verfahren: 305 mg kristallines Cefuroxim axetil wurden mit 50 mg Ac disol, 50 mg Avicel pH 105, 7,5 mg Aerosil 200, 2,5 mg Magnesiumstearat und 7,5 Explotab trocken vermischt. Das Gemisch wurde trocken verpreßt und granuliert. Das so erhaltene Granulat wurde mit 7,5 mg Explotab und 7,5 mg Natriumlaurylsulfat vermischt und das erhaltene Gemisch wurde dann zu Tabletten gepreßt.
Mit den so erhaltenen Tabletten wurde jeweils der Löslichkeitstest gemäß USP 23 durchgeführt. […]

[2] = known crystalline form of the prior art; compared with the prescribed minimum (60% in 15 Minuten, 75% in 45 Minuten); cited from earlier work

## CO/N=C(\C(=O)N[C@@H]1C(=O)N2C(C(=O)OC(C)OC(C)=O)=C(COC(N)=O)CS[C@H]12)c1ccco1 (stereo partly drawn) [Produkt gemäß EP-A1 0 757 991, (R,S)-Cefuroxim axetil]
[1]
  Löslichkeit (Grad der Auflösung des Wirkstoffes): > 40%

## CO/N=C(\C(=O)N[C@@H]1C(=O)N2C(C(=O)OC(C)OC(C)=O)=C(COC(N)=O)CS[C@H]12)c1ccco1 (stereo partly drawn) [kristalline (R,S)-Cefuroxim axetil, (R,S)-Cefuroxim axetil]
[2]
  Löslichkeit im Test gemäß USP 23: bei weitem nicht die vorgeschriebene Mindestlöslichkeit

## CO/N=C(\C(=O)N[C@@H]1C(=O)N2C(C(=O)OC(C)OC(C)=O)=C(COC(N)=O)CS[C@H]12)c1ccco1 (single isomer, unassigned) [Beispiel 2]
[1]; listed as kristalline Form von (R,S)-Cefuroxim axetil gemäß USP 23
  Löslichkeit (Grad der Auflösung des Wirkstoffes): > 50% and ~75%
